PMC10119930, “Dual Molecules Targeting 5-HT6 and GABA-A Receptors as a New Approach to Combat Depression Associated with Neuroinflammation” (ACS Chemical Neuroscience, 2023)

What was measured:
[1] = Thermodynamic solubility in PBS; assay type: physicochemical; conditions: Dulbecco’s phosphate buffered saline, 22 °C, aqueous buffer, thermodynamic from solid, PBS pH 7.4, rt
Experimental: The temperature of the column was preserved at 30 °C. The experiment was conducted under the following conditions: a flow rate of 5 mL/min, eluent A (water/0.1% HCOOH), eluent B (MeCN/0.1% HCOOH), a gradient of starting from 0% of B to 100% of B over a duration of 3 min. Each sample was injected at a volume of 10 μL in triplicate. […] These solutions were then utilized to generate calibration curves by plotting AUC versus concentration in μg/mL. The examined molecules (2 mg) were dissolved in 1 mL of Dulbecco’s phosphate buffered saline (DPBS). The mixture was then continuously agitated at 22 °C for 24 h using a thermoshaker. Following this period, the mixtures were filtered through a cellulose acetate syringe filter (with a pore size of 0.22 μm), moved to a chromatographic vial, and analyzed. To quantify the investigated compounds, the areas beneath their respective peaks on DAD chromatograms were employed. Solubility was calculated using the calibration curves. […] All the experiments were performed in duplicate.

Plasma stability assay = assay type: in vitro ADME, rat
Experimental: (§1) The quantitative HPLC analyses were acquired using Waters Alliance e2695 separations module (Waters, Milford, CT, USA) containing 2998 photodiode array (PDA), a detector (Waters, Milford, CT, USA), and the SpeedROD RP-18e 50–4.6 mm column (Merck, KGaA, Darmstadt, Germany). The temperature of the column was preserved at 30 °C. […] Each sample was injected at a volume of 10 μL in triplicate. […] The stock solutions were mixed with methanol and diluted, resulting in various solutions with concentrations ranging from 1.0 to 0.125 μg/mL. These solutions were then utilized to generate calibration curves by plotting AUC versus concentration in μg/mL. The examined molecules (2 mg) were dissolved in 1 mL of Dulbecco’s phosphate buffered saline (DPBS). The mixture was then continuously agitated at 22 °C for 24 h using a thermoshaker. Following this period, the mixtures were filtered through a cellulose acetate syringe filter (with a pore size of 0.22 μm), moved to a chromatographic vial, and analyzed. To quantify the investigated compounds, the areas beneath their respective peaks on DAD chromatograms were employed. Solubility was calculated using the calibration curves. Chemical stability assay: Stock solution of 16 in DMSO (10 mg/mL) was used. Next, 25 μL of stock solution was mixed with 975 μL of PBS (Dulbecco’s phosphate-buffered saline, Sigma, Poland). […] HPLC analyses were used to quantify the percentage of molecules that remained at each time point relative to the 0 min time point. Brain tissue stability assay: […] Then, 50 μL of the stock solution was combined with 50 μL of ice-cold 50 mM Tris-HCl buffer (pH 7.4) and 150 μL of brain homogenate (suspended in 20 volumes of 50 mM Tris-HCl buffer, ice cold, pH 7.4). The mix was then incubated at 37 °C and quenched at several time points. To terminate the reaction mixture, 250 μL of the appropriate reaction mixture was mixed with 1000 μL of MeCM in the Eppendorf Tube. Following 10 min of shaking (1500 rpm), samples were centrifuged (10 000 rpm, 10 min, 4 °C) and the acquired supernatant was collected. Before conducting HPLC analysis, the supernatant was filtered via a cellulose acetate syringe filter with a pore size of 0.45 μm and then transferred to a chromatographic vial. HPLC analysis was used to determine the percentage of the tested molecule remaining at each time point, relative to the 0 min time point. Plasma stability assay was performed as described previously.[45] Frozen rat plasma (Wistar) was thawed. […] The samples were collected at relative time points. The reaction was terminated by adding 1200 of μL acetonitrile/methanol mixture (50:50, v/v). The samples were centrifuge at 25 000 rpm for 10 min. HPLC analysis was used to determine the percentage of the tested molecule remaining at each time point relative to the 0 min time point. All the experiments were performed in duplicate.

[2] = Brain tissue stability assay; assay type: in vitro ADME; conditions: brain homogenate in Tris-HCl buffer
Experimental: as §1

[3] = Hepatotoxicity assay, HepG2 cell viability (PrestoBlue, ToxiLight); assay type: cell-based, human; conditions: human, HepG2 cells, 24 h, read-out: viability of cells, MEAN (percentage of control, live cells)
Experimental: (§2) Hepatotoxiticy assay was conducted according to our previously described procedures.[42]Cell culture and treatment: The human hepatocellular carcinoma (HepG2) cell line was acquired from ATCC, Manassas, USA (HB-8065), and maintained according to the manufacturer’s ATCC protocol. Cell culture conditions included a medium consisting of Dulbecco’s modified Eagle’s medium (DMEM, Merck), 10% fetal bovine serum, […], 100 IU/mL penicillin (acquired from ThermoFisher), humidified atmosphere containing 5% of carbon dioxide, temperature of 37 °C. The stock solution of the tested compound was prepared in DMSO (10 mM) and next diluted with buffered phosphate saline (PBS, Merck). Cell membrane damage was examined with the use of a ToxiLight bioassay (Lonza), rendering the manufacturer’s protocol described previously.[42] A culture medium containing 10% Triton X-100 (Merck) was used as the positive control of cell damage, while the negative control contained solely vehicle. After incubating for 5 min, the luminescence was examined with the plate reader POLARstar Omega (BMG Labtech). The results were expressed as a percentage of the positive control, which was defined as the percentage of dead cells relative to the control sample. Cell viability assay: The viability of cells was examined with the use of the PrestoBlue reagent (ThermoFisher) and protocol provided by the manufacturer. After incubating for 24 h with the examined compounds, one-tenth of the remaining medium volume was mixed with the reagent (PrestoBlue) in a microplate well. Following incubation at 37 °C during 15 min, the fluorescence (EX 530; EM 580 nm) was measured using the plate reader POLARstar Omega, (BMG Labtech). The viability values obtained are presented as a percentage of live cells relative to the DMSO (control sample). The GraphPad program was used to perform the statistical analysis. The mean values with their corresponding coefficient of variation (CV) were reported for all data. The differences between the groups were analyzed using one-way analysis of variance (ANOVA) followed by Dunnett’s multiple comparison tests as post hoc analysis. The statistical significance: p < 0.05.

HepG2 cells = experiment: as above; assay type: cell-based, human; conditions: concentrations up to 50 μM; viability assay and ToxiLight
Experimental: as §2

SMILES: Cc1c(OCc2ccccc2)cccc1N1CCN(CCOC(=O)CCCN)CC1.Cl.Cl [Compound 16, 1-(2-((4-Ammoniobutanoyl)oxy)ethyl)-4-(3-(benzyloxy)-2-methylphenyl)piperazin-1-ium Dichloride]
- solubility at 24 h [1]: > 2000 µg/mL
- % compound remaining (rat plasma, 37 °C) (Plasma stability assay; 0 min): 100 ± 0.1%
- % compound remaining (rat plasma, 37 °C) (Plasma stability assay; 15 min): 97.21 ± 0.8%
- % compound remaining (rat plasma, 37 °C) (Plasma stability assay; 30 min): 90.35 ± 1.4%
- % compound remaining (rat plasma, 37 °C) (Plasma stability assay; 60 min): 79.65 ± 2.5%
- % compound remaining (rat plasma, 37 °C) (Plasma stability assay; 120 min): 45.37 ± 2.2%
- % compound remaining (rat plasma, 37 °C) (Plasma stability assay; 240 min): 21.46 ± 1.2%
- % compound remaining (brain homogenate) ([2]; 0 min): 100 ± 0.3%
- % compound remaining (brain homogenate) ([2]; 15 min): 97.81 ± 2.1%
- % compound remaining (brain homogenate) ([2]; 30 min): 92.56 ± 1.9%
- % compound remaining (brain homogenate) ([2]; 60 min): 87.12 ± 3.2%
- % compound remaining (brain homogenate) ([2]; 120 min): 49.73 ± 2.4%
- % compound remaining (brain homogenate) ([2]; 240 min): 25.34 ± 1.6%
- viability at 24 h, 1 µM ([3]; HepG2, 1 µM): 102%
- viability at 24 h, 10 µM ([3]; HepG2, 10 µM): 104%
- viability at 24 h, 50 µM ([3]; HepG2, 50 µM): 102%
- viability at 24 h, 100 µM ([3]; HepG2, 100 µM): 14%
- reduction of HepG2 viability (HepG2 cells): not significant reduction of viability
